In patent US9700047B2, “Macrocyclic picolinamides as fungicides” (Dow AgroSciences LLC, priority 2014, dated 2017):
Read-outs that look alike come from different tables or passages of the source.

Tested on: Puccinia triticina; Synonym: Puccinia recondita f sp. tritici
Assay: Wheat brown rust (PUCCRT) disease control on wheat seedlings
Type: in vivo
Settings: for pest or weed control at 100 ppm: High Volume activity at 100 ppm; for pest or weed control at 121.5 g/ha: Low Volume activity at 121.5 g/H
Experimental: All fungicides were evaluated using the aforementioned method for their activity vs. all target diseases, unless stated otherwise. Wheat leaf blotch and brown rust activity were also evaluated using track spray applications, in which case the fungicides were formulated as EC formulations, containing 0.1% Trycol 5941 in the spray solutions. Wheat plants (variety Yuma) were grown from seed in a greenhouse in 50% mineral soil/50% soil-less Metro mix until the first leaf was fully emerged, with 7-10 seedlings per pot. These plants were inoculated with an aqueous spore suspension of Puccinia triticina either prior to or after fungicide treatments. […] The plants were then transferred to a greenhouse set at 24° C. for disease to develop. Fungicide formulation, application and disease assessment followed the procedures as described in the Example A.

[1] = 24 h, 1 Day Protectant, read-out: PUCCRT 1DP % Control rating
[2] = 72 h, 3 Day Curative, read-out: PUCCRT 3DC % Control rating

Compound	pest or weed control at 100 ppm [1]	pest or weed control at 121.5 g/ha [1]	pest or weed control at 100 ppm [2]	pest or weed control at 121.5 g/ha [2]
CCCC[C@@H]1[C@@H](Cc2ccccc2)CCC[C@H](NC(=O)c2nccc(OC)c2OC(C)=O)C(=O)O[C@H]1C [Compound 1, 2-(((3S,7R,8R,9S)-7-benzyl-8-butyl-9-methyl-2-oxooxonan-3-yl)carbamoyl)-4-methoxypyridin-3-yl acetate]	> 70%	> 70%	> 70%	< 70%
CCCC[C@@H]1[C@@H](Cc2ccccc2)CCC[C@H](NC(=O)c2nccc(OC)c2OCOC(C)=O)C(=O)O[C@H]1C [Compound 2, ((2-(((3S,7R,8R,9S)-7-benzyl-8-butyl-9-methyl-2-oxooxonan-3-yl)carbamoyl)-4-methoxypyridin-3-yl)oxy)methyl acetate]	> 70%	> 70%	> 70%	< 70%
COc1ccnc(C(=O)N[C@H]2CCC[C@H](CCC(C)C)[C@@H](Cc3ccccc3)[C@H](C)OC2=O)c1OC(C)=O [Compound 4]	–	> 70%	–	< 70%
COc1ccnc(C(=O)N[C@H]2CCC[C@H](Cc3ccccc3)[C@@H](Cc3ccccc3)[C@H](C)OC2=O)c1OC(C)=O [Compound 5]	–	> 70%	–	> 70%
COc1ccnc(C(=O)N[C@H]2CCC[C@H](Cc3ccccc3)[C@@H](Cc3ccccc3)[C@H](C)OC2=O)c1OCOC(C)=O [Compound 6]	–	> 70%	–	> 70%
COc1ccnc(C(=O)N[C@H]2CCC[C@H](Cc3ccccc3)[C@@H](Cc3ccccc3)[C@H](C)OC2=O)c1OCOC(=O)C(C)C [Compound 7, ((2-(((3S,7R,8R,9S)-7,8-dibenzyl-9-methyl-2-oxooxonan-3-yl)carbamoyl)-4-methoxypyridin-3-yl)oxy)methyl isobutyrate]	–	> 70%	–	> 70%
CCOCC(=O)OCOc1c(OC)ccnc1C(=O)N[C@H]1CCC[C@H](Cc2ccccc2)[C@@H](Cc2ccccc2)[C@H](C)OC1=O [Compound 8, ((2-(((3S,7R,8R,9S)-7,8-dibenzyl-9-methyl-2-oxooxonan-3-yl)carbamoyl)-4-methoxypyridin-3-yl)oxy)methyl 2-ethoxyacetate]	–	> 70%	–	< 70%
COc1ccnc(C(=O)N[C@H]2CCC[C@H](Cc3ccccc3)[C@@H](C3CCCC3)[C@H](C)OC2=O)c1OC(C)=O [Compound 9]	–	> 70%	–	< 70%
COc1ccnc(C(=O)N[C@H]2CCC[C@H](Cc3ccccc3)[C@@H](C3CCCC3)[C@H](C)OC2=O)c1OCOC(C)=O [Compound 10]	–	> 70%	–	> 70%
COc1ccnc(C(=O)N[C@H]2CCC[C@H](Cc3ccc(Cl)cc3)[C@@H](CC(C)C)[C@H](C)OC2=O)c1OCOC(C)=O [Compound 12]	–	> 70%	–	< 70%
COc1ccnc(C(=O)N[C@H]2CCC[C@H](Cc3ccc(Cl)cc3)[C@@H](CC(C)C)[C@H](C)OC2=O)c1OC(C)=O [Compound 13]	–	> 70%	–	< 70%
COc1ccnc(C(=O)N[C@H]2CCC[C@H](Cc3ccccc3)[C@@H](CC(C)C)[C@H](C)OC2=O)c1OCOC(C)=O [Compound 14]	–	> 70%	–	< 70%
COc1ccnc(C(=O)N[C@H]2CCC[C@H](Cc3ccccc3)[C@@H](CCc3ccccc3)[C@H](C)OC2=O)c1OCOC(C)=O [Compound 15]	–	> 70%	–	< 70%
CCOCC(=O)OCOc1c(OC)ccnc1C(=O)N[C@H]1CCC[C@H](Cc2ccccc2)[C@@H](CCc2ccccc2)[C@H](C)OC1=O [Compound 16]	–	> 70%	–	> 70%
COc1ccnc(C(=O)N[C@H]2CCC[C@H](Cc3ccccc3)[C@@H](CCc3ccccc3)[C@H](C)OC2=O)c1OCOC(=O)C(C)C [Compound 17]	–	> 70%	–	< 70%
